Results as given in patent US6649565B1, “Selective herbicides on the basis of a substituted phenylsulfonylaminocarbonyltriazolinone and safeners” (Bayer Aktiengesellschaft, priority 1999, dated 2003).

Tests used:
[1] = system: wheat of the cultivar Orestis; assay: Post-emergence test/greenhouse, damage to crop plant wheat; type: in vivo; conditions: greenhouse, after approx. 18 days
Text: (§1) The active compounds in question were used in the form of customary formulations. The sodium salt of the compound of the formula (I) was applied as 70 WG or 70 WP, mefenpyr-diethyl was applied as 100 EC and fenchlorazole-ethyl and cloquintocetmexyl were applied as a laboratory formulation of the active compound produced by ourselves. The active compounds and, if appropriate, the safeners were used to prepare an aqueous spray liquor comprising 0.1% of the additive Renex-36.
(§2) The active compound preparation is used to spray test plants which were grown in 10×10 cm pots (growth medium: soil or vermiculte), such that the particular amounts of active compound desired are applied per unit area. The concentration of the spray liquor is chosen such that the particular amounts of active compound desired are applied in […].
(§3) After approximately 18 days the degree of damage to the crop plants was rated in % damage in comparison with the development of the untreated control.
(§4) 0%=no damage (like untreated control)
(§5) 100%=total destruction/damage
(§6) Active compounds, application rates, test plants and results are shown in the tables below, the terms used in the tables having the following meaning:
wheat=wheat of the cultivar Orestis
(§7) a.i.=active ingredient=active compound/safener

[2] = system: barley of the cultivar Coronar; assay: Post-emergence test/greenhouse, damage to crop plant barley; type: in vivo; conditions: greenhouse, after approx. 18 days
Text: as §1, §2, §3, §4, §5, §6
barley=barley of the cultivar Coronar
as §7

What does the source list for `CCCOc1nn(C(=O)[N-]S(=O)(=O)c2ccccc2C(=O)OC)c(=O)n1C.[Na+]`?
Damage wheat ([1]; Table A1, 90 g of a.i./ha): 20%; Damage wheat ([1]; Table A1, 180 g of a.i./ha): 30%; Damage wheat ([1]; Table A2, 60 g of a.i./ha): 20%; Damage wheat ([1]; Table A2, 125 g of a.i./ha): 30%; Damage wheat ([1]; Table A2, 250 g of a.i./ha): 50%; Damage wheat ([1]; Table A3, 30 g of a.i./ha): 5%; Damage wheat ([1]; Table A3, 60 g of a.i./ha): 10%; Damage wheat ([1]; Table A3, 125 g of a.i./ha): 50%; Damage wheat ([1]; Table A4, 60 g of a.i./ha): 30%; Damage wheat ([1]; Table A4, 125 g of a.i./ha): 40%; Damage wheat ([1]; Table A7, 60 g of a.i./ha): 20%; Damage wheat ([1]; Table A7, 125 g of a.i./ha): 30%; Damage wheat ([1]; Table A7, 250 g of a.i./ha): 50%; Damage wheat ([1]; Table A8, 30 g of a.i./ha): 5%; Damage wheat ([1]; Table A8, 60 g of a.i./ha): 10%; Damage wheat ([1]; Table A8, 125 g of a.i./ha): 50%; Damage barley ([2]; Table A5, 15 g of a.i./ha): 50%; Damage barley ([2]; Table A5, 30 g of a.i./ha): 70%; Damage barley ([2]; Table A5, 60 g of a.i./ha): 70%; Damage barley ([2]; Table A6, 8 g of a.i./ha): 50%; Damage barley ([2]; Table A6, 15 g of a.i./ha): 50%; Damage barley ([2]; Table A6, 30 g of a.i./ha): 60%; Damage barley ([2]; Table A6, 60 g of a.i./ha): 60%; Damage barley ([2]; Table A9, 15 g of a.i./ha): 50%; Damage barley ([2]; Table A9, 30 g of a.i./ha): 70%; Damage barley ([2]; Table A9, 60 g of a.i./ha): 70%
